Reference: patent publication US7951551B2, “Kits and reagents for luciferase detection assay system” (PerkinElmer Life and Analytical Sciences B.V., priority 2005, dated 2011)
Like-named read-outs stand apart in the source and are kept apart here.

Tests used:
luciferase [1] = target: T1, luciferase (Photinus pyralis, UniProt P08659); assay: Light yield of the luciferin-luciferase reaction (luciferase detection, TopCount luminescence, 0-420 min); format: biochemical, firefly; settings: for final concentration up to which light yield increases: with 0.25 M phosphate
Text: A stock solution of 4.0 M Tris (source of ammonium ions) was neutralized with phosphoric acid (H3PO4) until a pH of 7.0 was reached. This stock buffer solution contained 2.0 M of phosphate. The stock solution was used to make a range of assay reagents comprising, respectively, 2.2, 1.1, 0.55, 0.275, 0.138, 0.069, 0.034 and 0.017 M Tris. The phosphate concentration in these assay reagents was […] phosphate, respectively.
Each reagent was checked for its pH to be 7.0 and was adjusted with small amounts of H3PO4 (several μl of a 2 M H3PO4 solution) if needed. The phosphate anions added in this manner had no significant effect on the above reported phosphate concentration. Each assay reagent was supplemented with D-luciferin, ATP and sodium-thiosulfate (Na2S2O3) by the addition of 250 μl of a freshly prepared stock solution (30 mM ATP, 3 mM D-luciferin, 100 mM thiosulfate adjusted to pH=7.0 with 1 M NaOH) to 2250 μl of assay reagent.
Luciferase was lyophilized in Dulbecco's-PBS with Mg and Ca (D'PBS^++) containing 0.05 g/ml trehalose and 0.016 g/ml BSA). Luciferase samples were prepared by reconstituting lyophilized luciferase in 200 μl water. The resulting solution was then diluted 100-fold by adding 150 μl of the reconstituted luciferase to 15 ml PBS (8.1 mM NaH2PO4, 1.5 mM KH2PO4, 2.7 mM KCl and 137 mM NaCl) containing 5 mM MgCl2, 5 mM CaCl2, 5 mM EDTA, 0.4% Thesit (a non-ionic detergent) and 0.1% bovine serum albumin (BSA). This yielded the “luciferase sample” solution which contained 27 ng/ml of luciferase.
The microplate was shaken for 10 seconds at 1100 rpm on a microplate-shaker and then immediately placed in a TopCount®-NXT Microplate Scintillation and Luminescence Counter. The resulting luminescent light signal was measured immediately after loading the microplate into the counter. The measurement was repeated after 5 and 10 minutes.
Final Tris concentrations in the different reaction mixtures were: 1.0, 0.5, 0.25, 0.125, 0.063, 0.031, 0.016 and 0.008 M. The phosphate concentrations were 0.5, 0.25, 0.125, 0.063, 0.031, 0.016, 0.008 and 0.004 M phosphate ions respectively. Final Mg^2+, D-luciferin, ATP, thiosulfate and luciferase concentrations in the reaction mixtures were 2.5 mM, 150 μM, 1.5 mM, 5 mM and 14 pg/μl, respectively.
FIG. 1 illustrates the effect of increasing Tris-phosphate concentrations in the luciferin-luciferase reaction mixture on the initial height and the decay of the light signal. To compare the total light yield (expressed as 10^9 counts) of each reaction mixture the areas under the curves were calculated by integrating the equations of the curves between 0 and 420 minutes. These equations of the curves were obtained using the option ‘trend line with equation’ of Microsoft Excel® software.
Stock solutions of 4.0 M ethanolamine (H2NCH2CH2OH) and 3.0 M ammonium-phosphate ((NH4)2HPO4) were neutralized with phosphoric acid (H3PO4) until pH 7.0 was reached. Dilutions were made in the same manner as described in example 1. Furthermore, all methods and other chemicals used to create the assay mixture and to test this for its light yield in a luciferin-luciferase reaction, were standardized and thus the same as in example 1. Final ethanolamine concentrations in the assay were 1.0, 0.5, 0.25, 0.125, 0.063, 0.031, 0.016 and 0.008 M, and 0.5, 0.25, 0.125, 0.063, 0.031, 0.016, 0.008 and 0.004 M phosphate, respectively. According to the present invention, a final concentration of 1M ethanolamine is assumed to provide the aqueous, neutral reaction mixture with 1M of ammonium ions. Thus, the concentration of ammonium ions in the reaction mixture is regarded to be identical to that of the source of ammonium ions. […]
Quantification of the reaction kinetics through surface area calculation under the curves is shown in Table 4 (ethanolamine-phosphate dilutions) and Table 5 (for ammonium-phosphate dilutions). […]
Target sequence in this assay (P08659 whole entry): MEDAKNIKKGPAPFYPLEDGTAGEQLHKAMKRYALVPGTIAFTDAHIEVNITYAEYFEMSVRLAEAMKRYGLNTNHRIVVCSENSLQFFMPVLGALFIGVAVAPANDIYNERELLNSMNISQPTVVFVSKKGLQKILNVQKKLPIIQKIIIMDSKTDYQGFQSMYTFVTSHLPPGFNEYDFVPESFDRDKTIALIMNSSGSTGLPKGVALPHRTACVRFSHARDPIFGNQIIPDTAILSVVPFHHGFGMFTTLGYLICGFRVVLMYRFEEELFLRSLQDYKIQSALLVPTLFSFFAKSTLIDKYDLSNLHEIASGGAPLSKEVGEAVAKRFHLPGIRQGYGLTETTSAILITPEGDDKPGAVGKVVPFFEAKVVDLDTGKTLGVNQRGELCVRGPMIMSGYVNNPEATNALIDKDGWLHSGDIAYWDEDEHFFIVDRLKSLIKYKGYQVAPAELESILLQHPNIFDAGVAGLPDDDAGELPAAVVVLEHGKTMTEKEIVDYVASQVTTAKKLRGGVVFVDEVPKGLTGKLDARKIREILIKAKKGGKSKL

[2] = target: Photinus pyralis luciferase (Photinus pyralis, UniProt P08659); settings: compared to freshly prepared luciferase solution; 10% without DTT; cited from earlier work
Photinus pyralis luciferase, sequence (P08659 whole entry): as above

[3] = cited from earlier work; for pKa (D/° C.): temperature coefficient of pKa, in brackets
luciferase [4] = target: T1, luciferase; settings: CoA in the assay reagent (U.S. Pat. No. 5,283,179); cited from earlier work
Target sequence in this assay (P08659 whole entry): as above

luciferase [5] = target: T1, luciferase; assay: Light yield of the luciferin-luciferase reaction (luciferase detection, TopCount luminescence, 0-420 min); format: biochemical, firefly; settings: 0.5 mM reducing agent, 0.5 M Tris and 0.25 M phosphate
Target sequence in this assay (P08659 whole entry): as above

[6] = cited from earlier work
luciferase [7] = target: T1, luciferase; set-up: host or cells: eukaryotic cells (unspecified); settings: 1% detergent, chemical lysis of eukaryotic cells; cited from earlier work
Target sequence in this assay (P08659 whole entry, species assumed): as the sequence (P08659 whole entry) above

luciferase [8] = target: T1, luciferase; settings: ATP assay, higher Tris-phosphate ion concentrations, integral 1-420 minutes
Target sequence in this assay (P08659 whole entry): as above
Description: (§1) For this experiment 16 different reagent mixtures were prepared; 8 mixtures (for the ATP assay) contained a large amount of luciferase, a small amount of ATP and increasing Tris-phosphate concentrations and 8 mixtures (for the luciferase assay) contained a large amount of ATP, a small amount of luciferase and increasing amounts of Tris-phosphate. To reduce variances that might be introduced by small concentrations differences between the reagents, all reagents were made from the same stock solutions where possible.
An “ATP sample” was prepared by diluting a reconstituted lyophilized ATP standard (PerkinElmer Inc.) in D'PBS^++ resulting in a 1.0×10^−8 mM ATP solution.
(§2) Likewise, in the same microplate the reaction kinetics when assaying for luciferase were measured by pipetting 100 μl of each Tris-phosphate concentration reagent with ATP, and adding 100 μl of “luciferase sample”.
(§3) The microplate was shaken for 10 seconds on a microplate-shaker and sealed with TopSeal-A™ (PerkinElmer Inc.). […] The luminescent light signal was immediately measured, meaning about 1 minute after mixing reagent and sample, and after 5 and 10 minutes. Hereafter the signal was measured repeatedly with 15 minute intervals to a total time of 420 minutes. […] The emitted light was quantified as counts per second (cps), count time 3 seconds per well.

luciferase [9] = target: T1, luciferase; settings: luciferase assay, up to 100 mM Tris-phosphate, integral 1-420 minutes
Target sequence in this assay (P08659 whole entry): as above
Description: as §1
A “luciferase sample” was prepared by reconstituting a lyophilized luciferase control sample (PerkinElmer Inc.) in H2O and diluting this in Dulbecco's PBS with Ca/Mg (D'PBS^++) to a 1.0×10^−7 g/l luciferase solution.
as §2, §3

[10] = 5 mM reducing agent, 0.5 M Tris and 0.25 M phosphate

## O[C@H](CS)[C@H](O)CS (racemic) [DTT, dithiothreitol]
Luciferase [1]; [10]
  Light Yield: 167.5 10^9counts
[2]
  luciferase activity maintained in aged luciferase solution: 50%

## NC(=O)CNCCS(=O)(=O)O [ACES, N-(2-acetamido)-2-aminoethanesufonic acid]
[3]
  pKa at 20° C.: 6.88
  pKa (D/° C.): −0.020 D/° C.

## NC(=O)CN(CC(=O)O)CC(=O)O [ADA, N-(2-acetamido)iminodiacetic acid]
[3]
  pKa (D/° C.): −0.011 D/° C.

## N.N.N.O=P(O)(O)O [Ammonium, ammonium-phosphate]
Luciferase [1]; 0.016 M ammonium, […] phosphate, pH 7.0, 28 mM MOPS
  Light Yield: 31.8 10^9counts
Luciferase [1]; 0.031 M ammonium, 0.021 M phosphate, pH 7.0, 28 mM MOPS
  Light Yield: 43.7 10^9counts
Luciferase [1]; 0.063 M ammonium, 0.043 M phosphate, pH 7.0, 28 mM MOPS
  Light Yield: 69.3 10^9counts
Luciferase [1]; 0.125 M ammonium, 0.088 M phosphate, pH 7.0, 28 mM MOPS
  Light Yield: 83.2 10^9counts
Luciferase [1]; 0.25 M ammonium, 0.175 M phosphate, pH 7.0, 28 mM MOPS
  Light Yield: 88.9 10^9counts
Luciferase [1]; 0.5 M ammonium, 0.35 M phosphate, pH 7.0, 28 mM MOPS
  Light Yield: 113.1 10^9counts
Luciferase [1]; 1.0 M ammonium, 0.7 M phosphate, pH 7.0, 28 mM MOPS
  Light Yield: 80.7 10^9counts
Luciferase [1]; 2.0 M ammonium, 1.4 M phosphate, pH 7.0, 28 mM MOPS
  Light Yield: 44.6 10^9counts
Luciferase [1]; with 350 mM of phosphate
  concentration up to which light yield increases: 500 mM

## O=S(=O)(O)CCN(CCO)CCO [BES, N,N-bis(2-hydroxyethyl)-2-aminoethanesulfonic acid]
[3]
  pKa (D/° C.): (−0.016) D/° C.

## O=C(O)CN(CCO)CCO [Bicine, N,N-bis(2-hydroxyethyl)glycine]
[3]
  pKa (D/° C.): (−0.018) D/° C.

## O=S(=O)(O)CCCNC1CCCCC1 [CAPS, 3-(cyclohexylamino)-1-propanesulfonic acid]
[3]
  pKa (D/° C.): (0.032) D/° C.

## O=S(=O)(O)CCNC1CCCCC1 [CHES, 2-(cyclohexylamino)-1-ethanesulfonic acid]
[3]
  pKa at 20° C.: 9.55
  pKa (D/° C.): (−0.011) D/° C.

## CC(C)(COP(=O)(O)OP(=O)(O)OC[C@H]1O[C@@H](n2cnc3c(N)ncnc32)[C@H](O)[C@@H]1OP(=O)(O)O)[C@@H](O)C(=O)NCCC(=O)NCCS [CoA, coenzyme A]
Luciferase [4]
  time for which increased light output is maintained: at least 60 seconds

## NCCO [Ethanolamine, ethanolamine]
Luciferase [1]; 0.008 M ethanolamine, 0.004 M phosphate, pH 7.0
  Light Yield: 41.6 10^9counts
Luciferase [1]; 0.016 M ethanolamine, 0.008 M phosphate, pH 7.0
  Light Yield: 49.6 10^9counts
Luciferase [1]; 0.031 M ethanolamine, 0.016 M phosphate, pH 7.0
  Light Yield: 59.2 10^9counts
Luciferase [1]; 0.063 M ethanolamine, 0.031 M phosphate, pH 7.0
  Light Yield: 70.0 10^9counts
Luciferase [1]; 0.125 M ethanolamine, 0.063 M phosphate, pH 7.0
  Light Yield: 96.2 10^9counts
Luciferase [1]; 0.25 M ethanolamine, 0.125 M phosphate, pH 7.0
  Light Yield: 115.4 10^9counts
Luciferase [1]; 0.5 M ethanolamine, 0.25 M phosphate, pH 7.0
  Light Yield: 124.8 10^9counts
Luciferase [1]; 1.0 M ethanolamine, 0.5 M phosphate, pH 7.0
  Light Yield: 99.0 10^9counts
Luciferase [1]
  final concentration up to which light yield increases: 0.5 M

## O=S(=O)(O)CCCN1CCN(CCO)CC1 [HEPPS (EPPS), 4-(2-hydroxyethyl)piperazine-1-propanesulfonic acid]
[3]
  pKa (D/° C.): −0.011 D/° C.

## O=S(=O)(O)CCCN1CCOCC1 [MOPS, 3-morpholinopropanesulfonic acid]
[3]
  pKa (D/° C.): −0.011 D/° C.

## O=S(O)(O)=S [Na2S2O3, sodium-thiosulfate]
Luciferase [1]; [10]
  Light Yield: 147.7 10^9counts

## O=S([O-])S(=O)[O-].[Na+].[Na+] [Na2S2O4, sodium-dithionite]
Luciferase [5]
  Light Yield: 128.4 10^9counts

## O=S([O-])[O-].[Na+].[Na+] [Na2SO3, sodium-sulfite]
Luciferase [1]; [10]
  Light Yield: 136.8 10^9counts

## O=S(=O)(O)CCCNC(CO)(CO)CO [TAPS, N-[tris(hydroxymethyl)methyl]-3-aminopropanesulfonic acid]
[3]
  pKa (D/° C.): (0.018) D/° C.

## O=C(O)CCP(CCC(=O)O)CCC(=O)O [TCEP, Tris(2-carboxyethyl) phosphine]
Luciferase [1]; [10]
  Light Yield: 122.1 10^9counts

## O=C(O)CNC(CO)(CO)CO [Tricine, N-[tris(hydroxymethyl)methyl]-glycine]
[3]
  pKa (D/° C.): (−0.021) D/° C.

## CC(C)N [isopropylamine]
[6]
  pKa: 10.82

## Triton™ X-100
Luciferase [7]
  greater light output over simple freeze-thaw lysis: ≤ 25 fold

## tris(hydroxymethyl)aminomethane
Luciferase [8]
  effect on total luminescence: inhibit total luminescence
Luciferase [1]; 0.008 M Tris, 0.004 M phosphate, pH 7.0, 0-420 min
  Light Yield: 44.4 10^9counts
Luciferase [1]; 0.016 M Tris, 0.008 M phosphate, pH 7.0, 0-420 min
  Light Yield: 52.9 10^9counts
Luciferase [1]; 0.031 M Tris, 0.016 M phosphate, pH 7.0, 0-420 min
  Light Yield: 63.0 10^9counts
Luciferase [1]; 0.063 M Tris, 0.031 M phosphate, pH 7.0, 0-420 min
  Light Yield: 80.4 10^9counts
Luciferase [1]; 0.125 M Tris, 0.063 M phosphate, pH 7.0, 0-420 min
  Light Yield: 103.4 10^9counts
Luciferase [1]; 0.25 M Tris, 0.125 M phosphate, pH 7.0, 0-420 min
  Light Yield: 126.8 10^9counts
Luciferase [1]; 0.5 M Tris, 0.25 M phosphate, pH 7.0, 0-420 min
  Light Yield: 137.3 10^9counts
Luciferase [1]; 1.0 M Tris, 0.5 M phosphate, pH 7.0, 0-420 min
  Light Yield: 123.8 10^9counts
Luciferase [1]
  final concentration up to which light yield increases: 0.5 M
Luciferase [9]
  effect on total luminescence: enhances total luminescence
